Assay results from patent publication US12240857B2 (priority 2017, dated 2025).
Read-outs that look alike come from different tables or passages of the source.

Columns and labels:
[1] = tested on: full-length Marburgvirus (MARV) GP pseudotyped VSV; assay: microbe, parasite or virus in culture; format: cell-based, Marburg marburgvirus; settings: for EC50: Orthomarburgvirus, read-out: EC50 Pseudotype Assays MARV
[2] = tested on: parent VSV virus expressing the native VSV glycoprotein; assay: microbe, parasite or virus in culture; format: cell-based; settings: Vesicular stomatitis virus, Vero; for EC50: read-out: EC50 Pseudotype Assays VSV; for inhibition at 5 µM: read-out: VSV % inh. at 5 μM
[3] = in vitro; settings: African green monkey
[4] = tested on: BDBV mucin-domain-deleted glycoprotein pseudotyped VSV; assay: microbe, parasite or virus in culture; format: cell-based, Bundibugyo ebolavirus
[5] = tested on: full-length Ebola Zaire GP pseudotyped VSV (EBOV_FL); assay: microbe, parasite or virus in culture; format: cell-based; settings: Zaire ebolavirus, read-out: EC50 Pseudotype Assays EBOV_FL
[6] = tested on: EBOV mucin-domain-deleted glycoprotein pseudotyped VSV; assay: microbe, parasite or virus in culture; format: cell-based, Zaire ebolavirus
[7] = tested on: full-length LASV glycoprotein pseudotyped VSV; assay: microbe, parasite or virus in culture; format: cell-based, Lassa virus; settings: Vesicular stomatitis virus, read-out: EC50 Pseudotype Assays LASV
[8] = tested on: wild-type Sudan Gulu; assay: microbe, parasite or virus in culture; settings: Sudan ebolavirus, HeLa, read-out: Sudan Gulu EC50
[9] = tested on: wild-type Sudan Gulu
[10] = tested on: wild-type Ebola Zaire
[11] = tested on: wild-type Ebola Zaire; assay: microbe, parasite or virus in culture; settings: Zaire ebolavirus, HeLa, read-out: Ebola Zaire EC50
[12] = tested on: Vero cells; settings: for % cell viability at 5 μM / % cell viability at 3 μM / % cell viability at 10 μM: African green monkey
[13] = Vesicular stomatitis virus, Vero, read-out: EC50 BDBV
[14] = Vesicular stomatitis virus, Vero, read-out: EC50 Pseudotype Assays BDBV
[15] = Zaire ebolavirus, Vero, read-out: EC50 EBOV
[16] = Zaire ebolavirus, Vero, read-out: EC50 Pseudotype Assays EBOV
[17] = Vesicular stomatitis virus, Vero, 24 h, read-out: EC50 BDBV
[18] = Zaire ebolavirus, Vero, 24 h, read-out: EC50 EBOV

SMILES: CN1CCC(NC(=O)C23CC4CC(C2)CC(c2ccccc2)(C4)C3)CC1 [Example A26]
- EC50 [1]: 2700 nM
- EC50 [2]: > 10 µM
- CC50 ([3]; CC50): 34 µM
- CC50 ([3]; Cytotox CC50): > 10 µM
- EC50 [4, 13]: 90 nM
- EC50 [4, 14]: 90 nM
- EC50 [5]: 160 nM
- EC50 [6, 15]: 120 nM
- EC50 [6, 16]: 120 nM
- EC50 [7]: > 10 µM

SMILES: CC12CC3CC(C(=O)N4CCCN(CCCN5CCCC5)CC4)(C1)CC(c1ccccc1)(C3)C2 (stereo not drawn) [Example A43]
- CC50 ([3]; CC50): 1.2 µM
- EC50 [4, 13]: 80 nM
- EC50 [6, 15]: 140 nM
- EC50 [8]: 60 nM
- Sudan Gulu SI (CC50/EC50) [9]: 104
- Ebola Zaire SI (CC50/EC50) [10]: 36.3
- EC50 [11]: 180 nM

SMILES: CC12CC3CC(C(=O)N[C@H]4CN5CCC4CC5)(C1)CC(c1ccccc1)(C3)C2 (stereo partly drawn) [Example A45]
- MARV pseudotyped virus EC50 concentration (in words) [1]: sub-micromolar
- EC50 [1]: 290 nM
- EC50 [2]: > 10 µM
- CC50 ([3]; CC50): 7.2 µM
- CC50 ([3]; Cytotox CC50): > 10 µM
- EC50 [4, 13]: 140 nM
- EC50 [4, 14]: 160 nM
- EC50 [5]: 120 nM
- EC50 [6, 15]: 60 nM
- EC50 [6, 16]: 61 nM
- Ebola Zaire SI (CC50/EC50) [10]: >28
- EC50 [11]: 380 nM
- EC50 [7]: > 10 µM

SMILES: CN1CCN(NC(=O)C23CC4CC(C)(C2)CC(c2ccccc2)(C4)C3)CC1 (stereo not drawn) [Example A47]
- CC50 ([3]; CC50): 36.2 µM
- EC50 [4, 13]: 170 nM
- EC50 [6, 15]: 70 nM
- Ebola Zaire SI (CC50/EC50) [10]: >8.5
- EC50 [11]: 710 nM

SMILES: O=C(N1CCNCC1)C12CC3CC(C1)CC(c1ccccc1)(C3)C2 [Example A60]
- EC50 [1]: 7900 nM
- EC50 [2]: > 10 µM
- CC50 ([3]; Cytotox CC50): > 10 µM
- EC50 [4, 13]: 170 nM
- EC50 [4, 14]: 210 nM
- EC50 [5]: 280 nM
- EC50 [6, 15]: 210 nM
- EC50 [6, 16]: 260 nM
- EC50 [7]: > 10 µM

SMILES: CC12CC3CC(C(=O)N4CCNCC4)(C1)CC(c1ccccc1)(C3)C2 (stereo not drawn) [Example A71]
- CC50 ([3]; CC50): 4.6 µM
- EC50 [4, 13]: 130 nM
- EC50 [6, 15]: 130 nM
- Ebola Zaire SI (CC50/EC50) [10]: >6
- EC50 [11]: 870 nM

SMILES: O=C(NC1CCNCC1)C1C2CC3CC1CC(c1ccccc1)(C3)C2 (stereo not drawn) [Example A81]
- CC50 ([3]; CC50): 13.9 µM
- EC50 [4, 13]: 110 nM
- EC50 [6, 15]: 180 nM
- EC50 [8]: 210 nM
- Sudan Gulu SI (CC50/EC50) [9]: 266
- Ebola Zaire SI (CC50/EC50) [10]: 48.9
- EC50 [11]: 1110 nM

SMILES: O=C(NC1CCN(Cc2ccccc2)CC1)C12CC3CC(C1)CC(c1ccccc1)(C3)C2 [Example B1, N-(1-benzylpiperidin-4-yl)-3-phenyladamantane-1-carboxamide]
- inhibition at 5 µM [2]: < 20%
- EC50 [4, 17]: 770 nM
- % cell viability at 5 μM [12]: 62%
- EC50 [6, 18]: 440 nM

SMILES: CC(C)CN1CCOC(CNC(=O)C23CC4CC(C2)CC(c2ccccc2)(C4)C3)C1 (stereo not drawn) [Example B2, N-{[4-(2-methylpropyl)morpholin-2-yl]methyl}-3-phenyladamantane-1-carboxamide]
- EC50 [4, 17]: 930 nM
- % cell viability at 3 μM [12]: 100%
- % cell viability at 10 μM [12]: 97%
- EC50 [6, 18]: 570 nM

SMILES: O=C(N1CCN(c2ccccc2)CC1)C12CC3CC(C1)CC(c1ccccc1)(C3)C2 [Example B3, 1-phenyl-4-[(3-phenyladamantan-1-yl)carbonyl]piperazine]
- EC50 [4, 17]: > 5000 nM
- % cell viability at 5 μM [12]: 83%
- EC50 [6, 18]: 610 nM

SMILES: CC(C)(CNC(=O)C12CC3CC(C1)CC(c1ccccc1)(C3)C2)N1CCOCC1 [Example B4, N-[2-methyl-2-(morpholin-4-yl)propyl]-3-phenyladamantane-1-carboxamide]
- EC50 [4, 17]: 2690 nM
- % cell viability at 3 μM [12]: 100%
- % cell viability at 10 μM [12]: 114%
- EC50 [6, 18]: 690 nM

SMILES: O=C(N[C@@H]1CCNC1)C12CC3CC(C1)CC(c1ccccc1)(C3)C2 [Example B5, 3-phenyl-N-[(3R)-pyrrolidin-3-yl] adamantane-1-carboxamide]
- inhibition at 5 µM [2]: < 20%
- EC50 [4, 17]: 560 nM
- % cell viability at 5 μM [12]: 97%
- EC50 [6, 18]: 790 nM

SMILES: COc1ccc(N2CCN(CCCNC(=O)C34CC5CC(C3)CC(c3ccccc3)(C5)C4)CC2)cc1 [Example B6, N-{3-[4-(4-methoxyphenyl)piperazin-1-yl]propyl}-3-phenyl adamantane-1-carboxamide]
- EC50 [4, 17]: 1600 nM
- % cell viability at 3 μM [12]: 75%
- % cell viability at 10 μM [12]: 25%
- EC50 [6, 18]: 920 nM

SMILES: COc1ccc(C(CNC(=O)C23CC4CC(C2)CC(c2ccccc2)(C4)C3)N2CCOCC2)cc1 (stereo not drawn) [Example B7, N-[2-(4-methoxyphenyl)-2-(morpholin-4-yl)ethyl]-3-phenyl adamantane-1-carboxamide]
- EC50 [4, 17]: 3100 nM
- % cell viability at 3 μM [12]: 112%
- % cell viability at 10 μM [12]: 95%
- EC50 [6, 18]: 3200 nM

SMILES: O=C(NCC(c1cccs1)N1CCOCC1)C12CC3CC(C1)CC(c1ccccc1)(C3)C2 (stereo not drawn) [Example B8, N-[2-(morpholin-4-yl)-2-(thiophen-2-yl)ethyl]-3-phenyladamantane-1-carboxamide]
- EC50 [4, 17]: 4600 nM
- % cell viability at 3 μM [12]: 103%
- % cell viability at 10 μM [12]: 90%
- EC50 [6, 18]: 3600 nM

SMILES: O=C(NC1CCN(Cc2ccccc2)CC1)C12CC3CC(CC(Cl)(C3)C1)C2 [Example B9, N-(1-benzylpiperidin-4-yl)-3-chloro adamantane-1-carboxamide]
- EC50 [4, 17]: 3100 nM
- % cell viability at 3 μM [12]: 112%
- % cell viability at 10 μM [12]: 104%
- EC50 [6, 18]: 3800 nM

SMILES: O=C(CN1CCN(C(=O)C23CC4CC(C2)CC(c2ccccc2)(C4)C3)CC1)NC1CC1 [Example B10, N-cyclopropyl-2-{4-[(3-phenyladamantan-1-yl)carbonyl]piperazin-1-yl}acetamide]
- inhibition at 5 µM [2]: < 20%
- EC50 [6, 18]: < 5000 nM

SMILES: Cc1ccc(C23CC4CC(CC(C(=O)NC5CN6CCC5CC6)(C4)C2)C3)cc1 (stereo not drawn) [Example B11, N-{1-azabicyclo[2.2.2]octan-3-yl}-3-(4-methylphenyl)adamantane-1-carboxamide]
- inhibition at 5 µM [2]: < 20%
- % cell viability at 5 μM [12]: 92%
- EC50 [6, 18]: < 5000 nM

SMILES: CC12CC3CC(C)(C1)CC(C(=O)NCCN1CCCCC1)(C3)C2 [Example B12, 3,5-dimethyl-N-[2-(piperidin-1-yl)ethyl] adamantane-1-carboxamide]
- inhibition at 5 µM [2]: < 20%
- % cell viability at 5 μM [12]: 90%
- EC50 [6, 18]: 50000 nM

SMILES: Cc1ccc(C23CC4CC(CC(C(=O)N5CCN(Cc6ccccc6)CC5)(C4)C2)C3)cc1 [Example B13, 1-benzyl-4-{[3-(4-methylphenyl)adamantan-1-yl]carbonyl}piperazine]
- inhibition at 5 µM [2]: < 20%
- EC50 [4, 17]: > 5000 nM
- EC50 [6, 18]: > 5000 nM

SMILES: Cc1ccc(C23CC4CC(CC(C(=O)N5CCN(C)CC5)(C4)C2)C3)cc1 [Example B14, 1-methyl-4-{[3-(4-methylphenyl)adamantan-1-yl]carbonyl} piperazine]
- inhibition at 5 µM [2]: < 20%
- % cell viability at 5 μM [12]: 95%
- EC50 [6, 18]: 5600 nM

SMILES: O=C(NC1CCN(Cc2ccccc2)CC1)C12CC3CC(CC(C3)C1)C2 [Example B15, N-(1-benzylpiperidin-4-yl)adamantane-1-carboxamide]
- EC50 [4, 17]: 3900 nM
- % cell viability at 3 μM [12]: 99%
- % cell viability at 10 μM [12]: 98%
- EC50 [6, 18]: 5900 nM

SMILES: c1ccc(C23CC4CC(CC(CNC5CCNCC5)(C4)C2)C3)cc1 [Example C2, N-((3-phenyladamantan-1-yl)methyl)piperidin-4-amine]
- CC50 ([3]; CC50): 3.6 µM
- EC50 [4, 13]: 200 nM
- EC50 [6, 15]: 250 nM
- EC50 [8]: 60 nM
- Sudan Gulu SI (CC50/EC50) [9]: 109
- Ebola Zaire SI (CC50/EC50) [10]: 25.3
- EC50 [11]: 250 nM

SMILES: CC1CCCC(C)N1CC(O)COCCC12CC3CC(CC(C3)C1)C2 (stereo not drawn) [Example D8, 1-[2-(adamantan-1-yl)ethoxy]-3-(2,6-dimethylpiperidin-1-yl) propan-2-ol]
- MARV pseudotyped virus EC50 concentration (in words) [1]: sub-micromolar
- EC50 [1]: 590 nM
- EC50 [2]: 3.8 µM
- CC50 ([3]; CC50): 3.8 µM
- CC50 ([3]; Cytotox CC50): 4 µM
- EC50 [4, 17]: 80 nM
- EC50 [4, 14]: 80 nM
- EC50 [5]: 300 nM
- EC50 [6, 18]: 210 nM
- EC50 [6, 16]: 210 nM
- EC50 [7]: 4.9 µM

SMILES: CCN(CC)CCNc1nc(C23CC4CC(CC(C4)C2)C3)cs1 [Example D32, (2-{[4-(adamantan-1-yl)-1,3-thiazol-2-yl]amino}ethyl) diethylamine]
- MARV pseudotyped virus EC50 concentration (in words) [1]: sub-micromolar
- EC50 [1]: 610 nM
- EC50 [2]: > 10 µM
- CC50 ([3]; CC50): 9 µM
- CC50 ([3]; Cytotox CC50): > 10 µM
- EC50 [4, 17]: 170 nM
- EC50 [4, 14]: 170 nM
- EC50 [5]: 200 nM
- EC50 [6, 18]: 230 nM
- EC50 [6, 16]: 230 nM
- EC50 [7]: > 10 µM

SMILES: Cc1ccccc1-c1nnn(CC(=O)NC(C)C23CC4CC(CC(C4)C2)C3)n1 (stereo not drawn) [Example D42, N-[1-(adamantan-1-yl)ethyl]-2-[5-(2-methylphenyl)-2H-1,2,3,4-tetrazol-2-yl] acetamide]
- EC50 ([4]; read-out: EC50 BDBV): 3900 nM
- CC50 [12]: > 10 µM
- EC50 ([6]; read-out: EC50 EBOV): 3200 nM
